From paper PMC6290023 (Scientific Reports, 2018)
Peptide text beside a SMILES is read from it.

What was measured:
[1] = Dissolution in water and sedimentation in 0.45% saline at 37 °C for 24 h; format: physicochemical; conditions: for sedimentation after incubation in 0.45% saline: 37 °C, 24 h, visual
Procedure: Synthetic MHP1 (NH2-[…]-COOH), MHP1-DN1 (NH2-LMVYVV-DLys-[…]-COOH), MHP1-DN2 (NH2-LMV-DTyr-[…]-COOH), MHP1-DN3 (NH2-L-DMet-[…]-COOH), MHP1-DC (NH2-LMVYVVKTSIKIPSSHNL-DMet-KGGSTKNWSGN-COOH), MHP1-Ac (Ac-[…]-COOH), MHP1-AcN (Ac-[…]-HN2), or MHP1-N (NH2-[…]-NH2) was purchased from ILS, Inc (Ibaraki, Tsukuba, Japan), dissolved in 1 or 2 mg/ml ddH2O and stored at 4 °C until use (Table 1).

[2] = Safety in normal mice (blood biochemistry); format: in vivo, mouse; conditions: intravenous injection and continuous subcutaneous injection with Alzet pump, 24 h post-injection
[3] = tested on: FeCl3-induced thrombosis model in CCA; assay: FeCl3-induced thrombosis model in CCA, thrombolysis with tPA; format: in vivo; conditions: mouse, MHP1-AcN 150 μg/mice combined with tPA 10 mg/kg, 30 min after CCA occlusion
Procedure: (§1) The ischemic damage was evaluated at 48 h after MCAo in sections stained with cresyl violet. Coronal sections (12 μm thickness) were made at −1.4, −0.7, 0, 0.7 and 1.4 mm from the bregma, mounted on the stereomicroscope and photographed. The volume of the infarct was calculated by the sum of each area of all sections corrected by cerebral edema and multiplied by the thickness of the slices. In the experiment of tPA-induced hemorrhage, PE10-catheter was placed in the right internal jugular vein at 6 h after ischemia. The nylon suture was then removed and 10% of the MHP-AcN mixture (150 µg/mice) and tPA (10 mg/kg) were injected followed by continuous injection of residual mixture of MHP1-AcN and tPA using a syringe pump (UNIVENTOR 400 ANAESTHESIA UNIT, ZTN, MALTA). In the experiment of FeCl3 -induced thrombosis model in CCA, a piece of filter paper soaked in 7.5% FeCl3 was placed on the right CCA for 1 min and it was rinsed with saline. Blood flow was recorded by using a laser speckle blood flow imager (OMEGAZONE OZ-2, OMEGAWAVE, INC., Tokyo, Japan). tPA (10 mg/kg) or mixture of MHP1-AcN (150 μg/mice) and tPA was started to be administered at 30 min after CCA occlusion.

tPA-induced hemorrhage = format: in vivo; conditions: mouse tMCAo, MHP1-AcN 150 µg/mice combined with tPA 10 mg/kg after reperfusion at 6 h; 24 h after ischemia
Procedure: as §1

sedimentation after incubation in 0.45% saline ([1]; 1 mg/ml): sedimentation was not observed | sedimentation after incubation in 0.45% saline ([1]; 2 mg/ml): sedimentation was not observed | dissolution in water ([1]; water): easily dissolved in water
SMILES: CC[C@H](C)[C@H](NC(=O)[C@H](CO)NC(=O)[C@@H](NC(=O)[C@H](CCCCN)NC(=O)[C@@H](NC(=O)[C@@H](NC(=O)[C@H](Cc1ccc(O)cc1)NC(=O)[C@@H](NC(=O)[C@H](CCSC)NC(=O)[C@H](CC(C)C)NC(C)=O)C(C)C)C(C)C)C(C)C)[C@@H](C)O)C(=O)N[C@@H](CCCCN)C(=O)N[C@H](C(=O)N1CCC[C@H]1C(=O)N[C@@H](CO)C(=O)N[C@@H](CO)C(=O)N[C@@H](Cc1c[nH]cn1)C(=O)N[C@@H](CC(N)=O)C(=O)N[C@@H](CC(C)C)C(=O)N[C@@H](CCSC)C(=O)N[C@@H](CCCCN)C(=O)NCC(=O)NCC(=O)N[C@@H](CO)C(=O)N[C@H](C(=O)N[C@@H](CCCCN)C(=O)N[C@@H](CC(N)=O)C(=O)N[C@@H](Cc1c[nH]c2ccccc12)C(=O)N[C@@H](CO)C(=O)NCC(=O)N[C@@H](CC(N)=O)C(N)=O)[C@@H](C)O)[C@@H](C)CC [MHP1-AcN] (Ac-LMVYVVKTSIKIPSSHNLMKGGSTKNWSGN-NH2)
blood biochemistry [2]: no abnormalities | effect on time of recanalization by tPA [3]: did not affect the time of recanalization | effect on tPA-induced hemorrhagic formation (tPA-induced hemorrhage): reduced formation of hemorrhage
